# Results reported in patent publication US20260158009A1 (GENZYME CORPORATION, priority 2023, published 2026).
# Tests used:
# [1] = molecular target: T1, hRIPK1 (aa 1-375) fusion protein (Homo sapiens, UniProt Q13546); experiment: ADP-Glo kinase assay: catalytic activity of RIPK1 (autophosphorylation, conversion of ATP to ADP); assay type: biochemical
# T1 construct: hRIPK1 (aa 1-375) fusion protein
# T1 sequence (Q13546 1-375): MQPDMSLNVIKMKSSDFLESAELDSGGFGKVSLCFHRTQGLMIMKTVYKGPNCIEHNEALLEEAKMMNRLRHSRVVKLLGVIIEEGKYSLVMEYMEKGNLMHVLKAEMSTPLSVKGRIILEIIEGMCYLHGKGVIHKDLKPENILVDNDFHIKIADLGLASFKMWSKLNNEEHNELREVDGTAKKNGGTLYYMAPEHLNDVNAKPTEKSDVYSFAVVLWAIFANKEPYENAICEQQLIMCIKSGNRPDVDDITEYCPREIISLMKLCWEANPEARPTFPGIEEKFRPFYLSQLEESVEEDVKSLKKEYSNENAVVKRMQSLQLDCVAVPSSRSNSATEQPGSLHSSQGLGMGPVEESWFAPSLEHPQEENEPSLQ
# Summary of the method: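 hRIPK1 (aa 1-375) fusion protein (3.6 μg/ml final) was preincubated 30 min at rt with compound (33300-1.69 nM, 1% DMSO), then 50 μM ATP was added for 240 min at rt. ADP from autophosphorylation was measured by ADP-Glo luminescence and curves fitted by nonlinear regression.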
# U937 cells = experiment: Cellular assay in U937 cells: activity of RIPK1 inhibitors on TNFα/zVAD.fmk-induced cell death (necroptosis), CellTiter 96 AQueous (MTS) readout; assay type: cell-based; details: Homo sapiens, U-937
# Summary of the method: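 Necroptosis was measured by viable-cell MTS reduction (4 h, absorbance 490 nm) after overnight (18–24 h) 37° C culture. Cell suspensions of U937 cells carried TNFα (100 ng/ml) plus zVAD.fmk (50 μM) before compound was added. A 10-point curve (10 μM–0.26 nM or 1 μM–0.07 nM) was run in duplicate, normalised to the control lacking TNFα/zVAD.fmk.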
Structure (SMILES),IC50 [1] [µM],IC50 (U937 cells) [µM]
"N#Cc1cc(F)cc([C@@H]2CCON2C(=O)[C@H]2CC[C@H](Cn3cnc4cc(F)ccc43)CC2)c1 [compound 48, trans-3-fluoro-5-((S)-2-(4-((5-fluoro-1H-benzo[d]imidazol-1-yl)methyl)cyclohexane-1-carbonyl)isoxazolidin-3-yl)benzonitrile]",0.025,0.015
"O=C([C@H]1CC[C@H](Cn2cnc3cc(F)ccc32)CC1)N1OCC[C@H]1c1cc(F)cc(F)c1 [compound 49, trans-((S)-3-(3,5-difluorophenyl)isoxazolidin-2-yl)(4-((5-fluoro-1H-benzo[d]imidazol-1-yl)methyl)cyclohexyl)methanone]",0.021,0.008
"Cc1nc2cc(F)ccc2n1C[C@H]1CC[C@H](C(=O)N2OCC[C@H]2c2cc(F)cc(C#N)c2)CC1 [compound 50, trans-3-fluoro-5-((S)-2-(4-((5-fluoro-2-methyl-1H-benzo[d]imidazol-1-yl)methyl)cyclohexane-1-carbonyl)isoxazolidin-3-yl)benzonitrile]",0.027,0.029
"Cc1nc2cc(F)ccc2n1C[C@H]1CC[C@H](C(=O)N2OCC[C@H]2c2cc(F)cc(F)c2)CC1 [compound 51, trans-((S)-3-(3,5-difluorophenyl)isoxazolidin-2-yl)(4-((5-fluoro-2-methyl-1H-benzo[d]imidazol-1-yl)methyl)cyclohexyl)methanone]",0.034,0.017
"N#Cc1ccc2c(cnn2C[C@H]2CC[C@H](C(=O)N3OCC[C@H]3c3cc(F)cc(F)c3)CC2)c1 [compound 52, trans-1-((4-((S)-3-(3,5-difluorophenyl)isoxazolidine-2-carbonyl)cyclohexyl)methyl)-1H-indazole-5-carbonitrile]",0.015,0.002
"N#Cc1cc(F)cc([C@@H]2CCON2C(=O)[C@H]2CC[C@H](Cn3ncc4cc(C#N)ccc43)CC2)c1 [compound 53, trans-1-((4-((S)-3-(3-cyano-5-fluorophenyl)isoxazolidine-2-carbonyl)cyclohexyl)methyl)-1H-indazole-5-carbonitrile]",0.017,0.004
"N#Cc1cc(F)cc([C@@H]2CCON2C(=O)[C@H]2CC[C@H](Cn3ncc4cc(F)ccc43)CC2)c1 [compound 54, trans-3-fluoro-5-((S)-2-(4-((5-fluoro-1H-indazol-1-yl)methyl)cyclohexane-1-carbonyl)isoxazolidin-3-yl)benzonitrile]",0.021,0.006
"O=C([C@H]1CC[C@H](Cn2ncc3cc(F)ccc32)CC1)N1OCC[C@H]1c1cc(F)cc(F)c1 [compound 55, trans-((S)-3-(3,5-difluorophenyl)isoxazolidin-2-yl)(4-((5-fluoro-1H-indazol-1-yl)methyl)cyclohexyl)methanone]",0.021,0.003
"N#Cc1cc(F)cc([C@@H]2CCON2C(=O)[C@H]2CC[C@H](Cn3cc4cc(F)ccc4n3)CC2)c1 [compound 56, trans-3-fluoro-5-((S)-2-(4-((5-fluoro-2H-indazol-2-yl)methyl)cyclohexane-1-carbonyl)isoxazolidin-3-yl)benzonitrile]",0.042,0.109
"O=C([C@H]1CC[C@H](Cn2cc3cc(F)ccc3n2)CC1)N1OCC[C@H]1c1cc(F)cc(F)c1 [compound 57, trans-((S)-3-(3,5-difluorophenyl)isoxazolidin-2-yl)(4-((5-fluoro-2H-indazol-2-yl)methyl)cyclohexyl)methanone]",0.027,0.041
"N#Cc1ccc2nn(C[C@H]3CC[C@H](C(=O)N4OCC[C@H]4c4cc(F)cc(F)c4)CC3)cc2c1 [compound 58, trans-2-((4-((S)-3-(3,5-difluorophenyl)isoxazolidine-2-carbonyl)cyclohexyl)methyl)-2H-indazole-5-carbonitrile]",0.026,0.032
"N#Cc1cc(F)cc([C@@H]2CCON2C(=O)[C@H]2CC[C@H](Cn3cc4cc(C#N)ccc4n3)CC2)c1 [compound 59, trans-2-((4-((S)-3-(3-cyano-5-fluorophenyl)isoxazolidine-2-carbonyl)cyclohexyl)methyl)-2H-indazole-5-carbonitrile]",0.03,0.166
"Cc1nn(C[C@H]2CC[C@H](C(=O)N3OCC[C@H]3c3cc(F)cc(F)c3)CC2)c2ccccc12 [compound 60, trans-((S)-3-(3,5-difluorophenyl)isoxazolidin-2-yl)(4-((3-methyl-1H-indazol-1-yl)methyl)cyclohexyl)methanone]",0.014,0.005
"Cc1nn(C[C@H]2CC[C@H](C(=O)N3OCC[C@H]3c3cc(F)cc(C#N)c3)CC2)c2ccccc12 [compound 61, trans-3-fluoro-5-((S)-2-(4-((3-methyl-1H-indazol-1-yl)methyl)cyclohexane-1-carbonyl)isoxazolidin-3-yl)benzonitrile]",0.023,0.011
"Cc1c2ccccc2nn1C[C@H]1CC[C@H](C(=O)N2OCC[C@H]2c2cc(F)cc(F)c2)CC1 [compound 62, trans-((S)-3-(3,5-difluorophenyl)isoxazolidin-2-yl)(4-((3-methyl-2H-indazol-2-yl)methyl)cyclohexyl)methanone]",0.02,0.022
"Cc1c2ccccc2nn1C[C@H]1CC[C@H](C(=O)N2OCC[C@H]2c2cc(F)cc(C#N)c2)CC1 [compound 63, trans-3-fluoro-5-((S)-2-(4-((3-methyl-2H-indazol-2-yl)methyl)cyclohexane-1-carbonyl)isoxazolidin-3-yl)benzonitrile]",0.027,0.055
"N#Cc1cncc([C@@H]2CCON2C(=O)[C@H]2CC[C@H](Cn3cnc4cc(F)c(C#N)cc43)CC2)c1 [compound 64, trans-1-((4-((S)-3-(5-cyanopyridin-3-yl)isoxazolidine-2-carbonyl)cyclohexyl)methyl)-5-fluoro-1H-benzo[d]imidazole-6-carbonitrile]",0.02,0.047
"N#Cc1cncc([C@@H]2CCON2C(=O)[C@H]2CC[C@H](Cn3cnc4cc(C#N)c(F)cc43)CC2)c1 [compound 65, trans-1-((4-((S)-3-(5-cyanopyridin-3-yl)isoxazolidine-2-carbonyl)cyclohexyl)methyl)-6-fluoro-1H-benzo[d]imidazole-5-carbonitrile]",0.051,0.164
"N#Cc1cc(F)cc([C@@H]2CCON2C(=O)[C@H]2CC[C@H](Cn3ncc4cc(C#N)c(F)cc43)CC2)c1 [compound 66, trans-1-((4-((S)-3-(3-cyano-5-fluorophenyl)isoxazolidine-2-carbonyl)cyclohexyl)methyl)-6-fluoro-1H-indazole-5-carbonitrile]",0.018,0.002
"N#Cc1cc2cnn(C[C@H]3CC[C@H](C(=O)N4OCC[C@H]4c4cc(F)cc(F)c4)CC3)c2cc1F [compound 67, trans-1-((4-((S)-3-(3,5-difluorophenyl)isoxazolidine-2-carbonyl)cyclohexyl)methyl)-6-fluoro-1H-indazole-5-carbonitrile]",0.015,0.002
"Cc1nn(C[C@H]2CC[C@H](C(=O)N3OCC[C@H]3c3cc(F)cc(F)c3)CC2)c2cc(F)c(C#N)cc12 [compound 68, trans-1-((4-((S)-3-(3,5-difluorophenyl)isoxazolidine-2-carbonyl)cyclohexyl)methyl)-6-fluoro-3-methyl-1H-indazole-5-carbonitrile]",0.025,0.002
"Cc1nn(C[C@H]2CC[C@H](C(=O)N3OCC[C@H]3c3cc(F)cc(C#N)c3)CC2)c2cc(F)c(C#N)cc12 [compound 69, trans-1-((4-((S)-3-(3-cyano-5-fluorophenyl)isoxazolidine-2-carbonyl)cyclohexyl)methyl)-6-fluoro-3-methyl-1H-indazole-5-carbonitrile]",0.022,0.005
"N#Cc1cc(F)cc([C@@H]2CCON2C(=O)[C@H]2CC[C@H](Cn3cnc4cc(F)c(C(N)=O)cc43)CC2)c1 [compound 70, trans-1-((4-((S)-3-(3-cyano-5-fluorophenyl)isoxazolidine-2-carbonyl)cyclohexyl)methyl)-5-fluoro-1H-benzo[d]imidazole-6-carboxamide]",0.044,0.403
"NC(=O)c1cc2c(cc1F)ncn2C[C@H]1CC[C@H](C(=O)N2OCC[C@H]2c2cc(F)cc(F)c2)CC1 [compound 71, trans-1-((4-((S)-3-(3,5-difluorophenyl)isoxazolidine-2-carbonyl)cyclohexyl)methyl)-5-fluoro-1H-benzo[d]imidazole-6-carboxamide]",0.037,0.093
"N#Cc1cc(F)cc([C@@H]2CCON2C(=O)[C@H]2CC[C@H](Cn3ncc4cc(C(N)=O)ccc43)CC2)c1 [compound 72, trans-1-((4-((S)-3-(3-cyano-5-fluorophenyl)isoxazolidine-2-carbonyl)cyclohexyl)methyl)-1H-indazole-5-carboxamide]",0.03,0.01
